What was measured:
human fibroblast cells = assay: toxicity assay on cultured human fibroblast cells; type: cell-based; conditions: sub-confluent (proliferating) fibroblasts, 72 hours, 25 μM
Method: To assess the potential of parabulin as a bona fide anti-parasitic agent, its effects were evaluated on cultures of human cells and growth of the apicomplexan parasite Toxoplasma gondii within human cells. […] CA4 has well-defined anti-mitotic activity due to its disruption of vertebrate MTs.
FIG. 4(A) depicts a toxicity assay showing the effect of parabulin and CA4 on cultured human fibroblast cells.

Toxoplasma gondii [1] = assay: T. gondii tachyzoite replication; type: cell-based; conditions: 36 h after addition; controls above 96% eight cell-stage
Method: (§1) In order to assess the efficacy of parabulin, T. gondii tachyzoite replication was followed 36 h after addition of parabulin. […] A T. gondii plaque assay was used to determine the concentration at which parasite replication is reduced by half (EC50 value). When confluent fibroblast monolayers were infected with wild-type tachyzoites and left to grow for seven days, lytic parasite growth created visible holes in the vertebrate fibroblast monolayer. Both the plaque numbers and sizes were reduced by parabulin treatment.

[2] = target: T1, T. thermophila MTs (Tt-MT) (Tetrahymena thermophila, UniProt P41351+P41352); assay: TIRF microscopy MT dynamics reconstitution assay; type: biochemical
T1 construct: it was decided to isolate tubulin dimers from a protozoa organism; from tissue; host or cells: Tetrahymena thermophila cells (native tubulin isolated from the ciliate)
From the text: FIG. 1(D) is a plot of Tt-MT plus-end growth rates as a function of tubulin concentration. Error bars represent the mean +/−95% CI. […] Left: outside view. The α- and β-tubulin monomers are shown in ribbon representation and colored in dark and light gray, respectively. […] Right: tubulin dimer models fitted into a sliced, transparent and zoomed-in view. The paclitaxel structure in stick representation is highlighted in magenta. Lateral contacts between protofilaments are indicated in blue (H2-S3 in α2 and β2), red (H1-S2 in α2 and β2) and green (M loop in α1 and β1).
(§2) To test if parabulin is able to bind to tubulin, its activity was assessed in vitro on dynamic MTs using our TIRF microscopy reconstitution assay. In contrast to the dynamic periods of growth and shrinkage observed for T. thermophila MTs (FIG. 1C), the addition of parabulin led to a striking reduction in the numbers of growth events (FIG. 3A).
FIG. 3(A) is a plot showing the quantification of the Tt-MT growth events in TIRF microscopy MT dynamics reconstitution assays in the presence of the indicated drugs. Error bars represent the mean +/−95% CI. […] Error bars represent the mean +/−95% CI. […] FIG. 3(C) represents the Tt-MT length in the presence of the indicated drugs (40 μM). Error bars represent the mean +/−95% CI.
The average number of growth events per 10-minute movie decreased from 41.3 to 3.8 even though the number of MT seeds immobilized on the cover slide was similar.

T. thermophila = assay: turbidity based T. thermophila cell growth inhibition assay; set-up: species or system Tetrahymena thermophila; conditions: parabulin 50 μM (FIG. 2D)
From the text: Zoom outs showing differences in the Taxane-, Pironetin—and Colchicine-sites between T. thermophila (light grey) and H. sapiens (wheat) tubulin. The three distinct zones of the Colchicine site are highlighted by colored transparent ovals. Amino acid residue differences between human and protozoa tubulin are indicated. […] FIG. 2(C) represents the chemical structures of CA4 and parabulin. The two CA4 rings, denoted A and B, are highlighted as well as the linker (yellow). FIG. 2(D) is a plot showing the time course of T. thermophila cell growth in the presence of CA4 (20 μM) or parabulin (50 μM; error bars corresponding to the standard deviation of triplicate measurements).
To assess the activity of any putative anti parasitic compound, a turbidity based T. thermophila cell growth inhibition assay was put in place in parallel to the efforts to solve T. thermophila MT and tubulin structures.
as §2

Toxoplasma gondii [3] = assay: T. gondii plaque assay; type: cell-based; conditions: seven days
Method: as §1

[4] = drugs 40 μM, one-way ANOVA vs DMSO

T1 sequence (P41352 whole entry): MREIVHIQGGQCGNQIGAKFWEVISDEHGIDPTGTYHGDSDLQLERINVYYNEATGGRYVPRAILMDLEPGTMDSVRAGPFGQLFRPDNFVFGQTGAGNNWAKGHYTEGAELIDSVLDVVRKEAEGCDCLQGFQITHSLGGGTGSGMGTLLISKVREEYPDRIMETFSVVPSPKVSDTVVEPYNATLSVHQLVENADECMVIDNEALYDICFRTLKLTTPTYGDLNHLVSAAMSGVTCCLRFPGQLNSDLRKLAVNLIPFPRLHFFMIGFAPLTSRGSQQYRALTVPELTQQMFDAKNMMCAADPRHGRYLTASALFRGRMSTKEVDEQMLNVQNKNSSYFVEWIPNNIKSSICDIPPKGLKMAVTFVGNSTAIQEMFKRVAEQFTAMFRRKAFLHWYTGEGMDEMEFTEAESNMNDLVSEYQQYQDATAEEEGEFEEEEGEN
T1 sequence (P41351 whole entry): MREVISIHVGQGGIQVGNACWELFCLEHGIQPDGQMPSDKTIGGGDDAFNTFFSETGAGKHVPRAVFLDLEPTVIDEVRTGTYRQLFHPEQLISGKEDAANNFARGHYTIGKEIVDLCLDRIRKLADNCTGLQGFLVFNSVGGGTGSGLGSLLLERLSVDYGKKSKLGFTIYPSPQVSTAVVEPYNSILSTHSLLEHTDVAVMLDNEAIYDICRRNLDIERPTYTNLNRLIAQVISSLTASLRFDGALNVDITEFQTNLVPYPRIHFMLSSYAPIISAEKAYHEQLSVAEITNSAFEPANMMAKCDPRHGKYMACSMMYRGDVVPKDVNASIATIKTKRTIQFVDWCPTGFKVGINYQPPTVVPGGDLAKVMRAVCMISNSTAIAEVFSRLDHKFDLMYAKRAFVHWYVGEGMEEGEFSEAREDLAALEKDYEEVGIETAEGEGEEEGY

| SMILES | cell survival (human fibroblast cells) | eight cell-stage parasites (replication) (Toxoplasma gondii [1]) | average number of growth events per 10-minute movie ([2]; Tt-MT, control (DMSO) 41.3, similar number of MT seeds) | Tt-MT growth length vs control [2, 4] | Tt-MT growth rate vs control [2, 4] | T. thermophila cell growth (T. thermophila) | EC50 (Toxoplasma gondii [3]; Toxoplasma gondii, 168 h, confluent fibroblast monolayers, wild-type tachyzoites, read-out: EC50 (plaque area relative to control)) | plaque numbers and sizes (Toxoplasma gondii [3]) |
| --- | --- | --- | --- | --- | --- | --- | --- | --- |
| COc1ccc(/C=C\c2cc(OC)c(OC)c(OC)c2)cc1O [CA4, Combretastatin A4, reference compound] | 46% |  |  |  |  |  |  |  |
| COc1ccc(C=CC(=O)NCc2cc(OC)c(OC)c(OC)c2)cc1OC [parabulin, 3-(3,4-dimethoxyphenyl)-N-[(3,4,5-trimethoxyphenyl)methyl]prop-2-enamide] | 99% | no eight cell-stage observed | 3.8 | no significant differences | no significant differences | inhibited T. thermophila cell growth | 6.5 µM | reduced |
